Test results as given in patent US20110144565A1, “COMBINATION OF A TILIROSIDE AND A PEPTIDE” (LABORATOIRES CLARINS, priority 2008, published 2011).

System: collagen type I synthesis in normal adult human fibroblasts
Experiment: Immunolocalization of collagen type I in normal adult human fibroblasts (immunofluorescence, image analysis)
Format: cell-based
Conditions: 2×10^−3% palmitoyl lysine-valine-5 diaminohydroxybutyrate (P1), 72 hours, Anova
Method: The fibroblasts were seeded into 6-well plates with a glass coverslip in a proportion of 70 000 cells per dish, in MEM (Minimum Essential Medium). […] Each cell layer was then rinsed and fixed with methanol (−20° C.) before visualizing the collagen type I by immunofluorescence. […] The incubation time between each antibody is 1 hour. The cell nuclei are visualized by means of Dapi labeling. The coverslips are mounted on glass slides and then observed under a fluorescence microscope (Nikon Eclipse 50i). Photographs are taken of several fields of the cell population. The TRITC fluorescence images indicate the regions of localization of collagen type I. The DAPI fluorescence images indicate the cell nuclei and therefore the number of cells per field. The photographic images are analyzed using the Lucia image analysis software. The intensity of collagen labeling was observed on 14 and 15 photographic images according to the conditions. This fluorescence intensity is related to the number of cells per image. The differences in mean between the populations were studied by analysis of variance (Anova). This method uses measurements of variance in order to determine the significant or nonsignificant nature of the differences in mean measured on the populations.

“palmitoyl lysine-valine-5 diaminohydroxybutyrate” was tested, and the “collagen type I labeling (fluorescence intensity related to the number of cells) compared with the nontreated control” value was “statistically significant (p<0.0001) increase in collagen”.
